Source: patent US6203822A, “Gallium-containing compounds for the treatment of infections caused by intracellular pathogens and pathogens causing chronic pulmonary infection” (priority 1996, dated 2001)

Test system: MDR-TB patient isolate (resistant to isoniazid and rifampin)
Type: cell-based, M. tuberculosis
Conditions: gallium about 0 to about 500 μM

O=[N+]([O-])[O-].O=[N+]([O-])[O-].O=[N+]([O-])[O-].[Ga+3] [gallium nitrate]
activity against MDR M. tuberculosis strain: retained full activity
